{
  "source": "the supplement of paper PMC10307832",
  "assay_in_all_cases": "relative viability (nuclei count vs DMSO), 5 days (fraction); higher = more cells survive",
  "key": {"[1]": {"tested_on": "NCI-H520", "how_it_was_run": "(§1)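 Lung cancer cell lines in 1536-well plates got either a single drug or a fixed anchor-drug dose together with five library-drug doses (not always all listed) in √10 steps, by pin tool, on the day after seeding. Nuclei were counted after 5 days, and relative viability is the treated-to-vehicle ratio of nuclei counts. Values are medians of duplicate plates.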"}, "[2]": {"tested_on": "A-427", "how_it_was_run": "as §1"}, "[3]": {"tested_on": "NCI-H1648", "how_it_was_run": "as §1"}, "[4]": {"tested_on": "NCI-H2347", "how_it_was_run": "as §1"}, "[5]": {"tested_on": "NCI-H1666", "how_it_was_run": "as §1"}, "[6]": {"tested_on": "NCI-H1650", "how_it_was_run": "as §1"}, "[7]": {"tested_on": "UMC-11", "how_it_was_run": "as §1"}, "[8]": {"tested_on": "NCI-H1755", "how_it_was_run": "as §1"}, "[9]": {"tested_on": "NCI-H2126", "how_it_was_run": "as §1"}, "[10]": {"tested_on": "H3255", "how_it_was_run": "as §1"}, "[11]": {"tested_on": "NCI-H3122", "how_it_was_run": "as §1"}, "[12]": {"tested_on": "NCI-H23", "details": "first compound 0.08 µM", "how_it_was_run": "as §1"}},
  "data": [
    {"smiles": "C=C1C(=O)O[C@@H](CCCCCCCC)[C@@H]1C(=O)O", "note": "[C-75] + Nc1nc2[nH]cc(CCc3ccc(C(=O)N[C@@H](CCC(=O)O)C(=O)O)cc3)c2c(=O)[nH]1 [Pemetrexed] (partner 0.2 µM)", "values": [
      {"measurement": "relative viability", "setting": "[1]; first compound 0.08 µM", "result": 0.62},
      {"measurement": "relative viability", "setting": "[1]; first compound 0.253 µM", "result": 0.669},
      {"measurement": "relative viability", "setting": "[1]; first compound 0.8 µM", "result": 0.643},
      {"measurement": "relative viability", "setting": "[1]; first compound 2.53 µM", "result": 0.578},
      {"measurement": "relative viability", "setting": "[1]; first compound 8 µM", "result": 0.55},
      {"measurement": "relative viability", "setting": "[2]; first compound 0.08 µM", "result": 0.949},
      {"measurement": "relative viability", "setting": "[2]; first compound 0.253 µM", "result": 0.774},
      {"measurement": "relative viability", "setting": "[2]; first compound 0.8 µM", "result": 0.813},
      {"measurement": "relative viability", "setting": "[2]; first compound 2.53 µM", "result": 0.71},
      {"measurement": "relative viability", "setting": "[2]; first compound 8 µM", "result": 0.871},
      {"measurement": "relative viability", "setting": "[3]; first compound 0.08 µM", "result": 0.731},
      {"measurement": "relative viability", "setting": "[3]; first compound 0.253 µM", "result": 1.01},
      {"measurement": "relative viability", "setting": "[3]; first compound 0.8 µM", "result": 0.681},
      {"measurement": "relative viability", "setting": "[3]; first compound 8 µM", "result": 0.606},
      {"measurement": "relative viability", "setting": "[4]; first compound 0.08 µM", "result": 0.402},
      {"measurement": "relative viability", "setting": "[4]; first compound 0.253 µM", "result": 0.388},
      {"measurement": "relative viability", "setting": "[4]; first compound 0.8 µM", "result": 0.442},
      {"measurement": "relative viability", "setting": "[4]; first compound 2.53 µM", "result": 0.447},
      {"measurement": "relative viability", "setting": "[4]; first compound 8 µM", "result": 0.48},
      {"measurement": "relative viability", "setting": "[5]; first compound 0.08 µM", "result": 0.882},
      {"measurement": "relative viability", "setting": "[5]; first compound 0.253 µM", "result": 0.828},
      {"measurement": "relative viability", "setting": "[5]; first compound 0.8 µM", "result": 0.815},
      {"measurement": "relative viability", "setting": "[5]; first compound 8 µM", "result": 0.796},
      {"measurement": "relative viability", "setting": "[6]; first compound 0.08 µM", "result": 0.365},
      {"measurement": "relative viability", "setting": "[6]; first compound 0.253 µM", "result": 0.401},
      {"measurement": "relative viability", "setting": "[6]; first compound 0.8 µM", "result": 0.384},
      {"measurement": "relative viability", "setting": "[6]; first compound 8 µM", "result": 0.372},
      {"measurement": "relative viability", "setting": "[7]; first compound 0.08 µM", "result": 0.77},
      {"measurement": "relative viability", "setting": "[7]; first compound 0.253 µM", "result": 0.883},
      {"measurement": "relative viability", "setting": "[7]; first compound 0.8 µM", "result": 0.725},
      {"measurement": "relative viability", "setting": "[7]; first compound 2.53 µM", "result": 0.625},
      {"measurement": "relative viability", "setting": "[7]; first compound 8 µM", "result": 0.576},
      {"measurement": "relative viability", "setting": "[8]; first compound 0.08 µM", "result": 0.457},
      {"measurement": "relative viability", "setting": "[8]; first compound 0.253 µM", "result": 0.468},
      {"measurement": "relative viability", "setting": "[8]; first compound 0.8 µM", "result": 0.46},
      {"measurement": "relative viability", "setting": "[8]; first compound 2.53 µM", "result": 0.391},
      {"measurement": "relative viability", "setting": "[8]; first compound 8 µM", "result": 0.438},
      {"measurement": "relative viability", "setting": "[9]; first compound 0.08 µM", "result": 0.727},
      {"measurement": "relative viability", "setting": "[9]; first compound 0.253 µM", "result": 0.681},
      {"measurement": "relative viability", "setting": "[9]; first compound 0.8 µM", "result": 0.725},
      {"measurement": "relative viability", "setting": "[9]; first compound 2.53 µM", "result": 0.622},
      {"measurement": "relative viability", "setting": "[9]; first compound 8 µM", "result": 0.673},
      {"measurement": "relative viability", "setting": "[10]; first compound 0.08 µM", "result": 0.588},
      {"measurement": "relative viability", "setting": "[10]; first compound 0.253 µM", "result": 0.561},
      {"measurement": "relative viability", "setting": "[10]; first compound 0.8 µM", "result": 0.577},
      {"measurement": "relative viability", "setting": "[10]; first compound 2.53 µM", "result": 0.525},
      {"measurement": "relative viability", "setting": "[10]; first compound 8 µM", "result": 0.627},
      {"measurement": "relative viability", "setting": "[11]; first compound 0.08 µM", "result": 0.2},
      {"measurement": "relative viability", "setting": "[11]; first compound 0.253 µM", "result": 0.208},
      {"measurement": "relative viability", "setting": "[11]; first compound 0.8 µM", "result": 0.181},
      {"measurement": "relative viability", "setting": "[11]; first compound 2.53 µM", "result": 0.189},
      {"measurement": "relative viability", "setting": "[11]; first compound 8 µM", "result": 0.185},
      {"measurement": "relative viability", "setting": "[12]", "result": 0.716}
    ]}
  ]
}
